According to ChEMBL document CHEMBL6103545, “Discovery of GS-2278, a Potent and Selective LPAR1 Antagonist for the Treatment of Idiopathic Pulmonary Fibrosis” (J Med Chem, 2025):

How the values were obtained:
[1] = Oral bioavailability in male Sprague-Dawley rat at 5 mg/kg measured after 24 hrs by LC/MS/MS analysis; type: ADME, organism-based; settings: in vivo
[2] = Volume of distribution in Beagle dog at 1 mg/kg, iv measured after 24 hrs by LC/MS/MS analysis; type: ADME, organism-based, Canis lupus familiaris; settings: in vivo
[3] = Toxicity in Beagle dog CNS at 20 mg/kg/day, po measured after 28 days by radiotelemetry; type: organism-based, Canis lupus familiaris; settings: in vivo, 672 h, time 28 day
[4] = Half-life in cynomolgus monkey at 5 mg/kg, po measured after 24 hrs by LC/MS/MS analysis; type: ADME, organism-based, Macaca fascicularis; settings: in vivo
[5] = biological target: T1, Lysophosphatidic acid receptor 1 (Homo sapiens, UniProt Q92633); assay: Antagonist activity at human LPA1 receptor overexpressed in CHO cells pre-incubated for 1 hr followed by LPA addition by fluorescence based FLIPR calcium assay; type: functional, cell-based
[6] = biological target: T1, Lysophosphatidic acid receptor 1; assay: Antagonist activity at LPA1 receptor in serum starved human TWNT-4 cells assessed as nuclear translocation pre-incubated for 1 hr followed by LPA stimulation and measured after 30 min by MRTF-A assay; type: cell-based
[7] = Metabolic stability in cynomolgus monkey liver microsomes assessed as intrinsic clearance at 1 uM by LC/MS/MS analysis; type: ADME, Macaca fascicularis, Microsome; settings: read-out: CLH (converted)
[8] = Oral bioavailability in cynomolgus monkey at 5 mg/kg measured after 24 hrs by LC/MS/MS analysis; type: ADME, organism-based, Macaca fascicularis; settings: in vivo
[9] = biological target: Cytochrome P450 2D6 (Homo sapiens, UniProt P10635); assay: Inhibition of CYP2D6 (unknown origin) using midazolam as substrate; type: ADME
[10] = Apparent permeability across apical to basolateral side in cMDR1 knockout MDCK-II cells incubated upto 240 mins by RF-QToF analysis; type: ADME, cell-based, Canis lupus familiaris; settings: dog
[11] = Volume of distribution in cynomolgus monkey at 1 mg/kg, iv measured after 24 hrs by LC/MS/MS analysis; type: ADME, organism-based, Macaca fascicularis; settings: in vivo
[12] = biological target: Lysophosphatidic acid receptor 5 (Homo sapiens, UniProt Q9H1C0); assay: Antagonist activity at human LPA5 receptor overexpressed in CHO cells pre-incubated for 1 hr followed by LPA addition by fluorescence based FLIPR calcium assay; type: functional, cell-based
[13] = Apparent permeability from apical to basolateral side in human Caco-2 cells at 10 uM; type: ADME, cell-based
[14] = biological target: T1, Lysophosphatidic acid receptor 1; assay: Antagonist activity at human LPA1 receptor expressed in HEK293 cells assessed as Galpha13 effector recruitment incubated for 10 mins by BRET assay; type: functional, cell-based
[15] = Unbound drug concentration in CD-1 mouse brain at 2 uM incubated for 5 hrs by LC-MS analysis; type: ADME, tissue-based
[16] = biological target: Bile salt export pump (Homo sapiens, UniProt O95342); assay: Inhibition of BSEP in human hepatocyte by LC-MS analysis; type: cell-based
[17] = Toxicity in Beagle dog CNS at 30 mg/kg/day, po measured after 7 days by radiotelemetry; type: organism-based, Canis lupus familiaris; settings: in vivo, 168 h, time 7 day
[18] = tested on: P-gp (human); assay: Apparent permeability from apical to basolateral side of human P-gp transfected MDCK cells measured after 20 min by LC/MS/MS analysis; type: ADME, cell-based, Canis lupus familiaris; settings: dog, MDCK-MDR1
[19] = Plasma protein binding in female CD-1 mouse assessed as unbound fraction at 2 uM incubated for 24 hrs by LC-MS analysis; type: ADME, cell-free
[20] = Metabolic stability in Beagle dog liver microsomes assessed as intrinsic clearance at 1 uM by LC/MS/MS analysis; type: ADME, Canis lupus familiaris, Microsome; settings: read-out: CLH (converted)
[21] = Toxicity in Beagle dog CNS at 30 mg/kg/day, po measured after 28 days by radiotelemetry; type: organism-based, Canis lupus familiaris; settings: in vivo, 672 h, time 28 day
[22] = biological target: T1, Lysophosphatidic acid receptor 1; assay: Antagonist activity at human LPA1 receptor expressed in HEK293 cells assessed as Galpha12 effector recruitment incubated for 10 mins by BRET assay; type: functional, cell-based
[23] = biological target: T2, Cytochrome P450 1A2 (Homo sapiens, UniProt P05177); assay: Inhibition of CYP1A2 (unknown origin) using midazolam as substrate; type: ADME
T2 sequence (P05177 whole entry): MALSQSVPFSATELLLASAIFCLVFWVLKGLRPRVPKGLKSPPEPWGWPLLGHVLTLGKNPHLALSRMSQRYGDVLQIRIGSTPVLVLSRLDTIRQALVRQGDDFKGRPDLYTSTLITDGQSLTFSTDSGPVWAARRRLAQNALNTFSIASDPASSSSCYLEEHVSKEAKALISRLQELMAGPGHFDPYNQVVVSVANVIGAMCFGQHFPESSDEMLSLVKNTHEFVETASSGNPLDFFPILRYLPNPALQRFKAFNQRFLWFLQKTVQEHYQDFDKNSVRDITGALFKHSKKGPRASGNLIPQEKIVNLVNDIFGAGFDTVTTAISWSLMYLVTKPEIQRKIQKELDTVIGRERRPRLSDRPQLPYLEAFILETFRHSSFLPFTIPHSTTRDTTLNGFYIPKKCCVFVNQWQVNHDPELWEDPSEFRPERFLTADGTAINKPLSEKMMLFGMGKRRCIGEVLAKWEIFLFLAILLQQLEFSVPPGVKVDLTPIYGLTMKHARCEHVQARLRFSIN

[24] = Drug metabolism in female CD-1 mouse assessed as (R)-1-(2,5-Difluoropyridin-3-yl)ethyl (4-(5-Acetamidopyridin-2-yl)-1-methyl-1H-1,2,3-triazol-5-yl)carbamate metabolite formation at 1 uM by LC/MS/MS analysis; type: ADME
[25] = biological target: T3, Cytochrome P450 2B6 (Homo sapiens, UniProt P20813); assay: Inhibition of CYP2B6 (unknown origin) using midazolam as substrate; type: ADME
T3 sequence (P20813 whole entry): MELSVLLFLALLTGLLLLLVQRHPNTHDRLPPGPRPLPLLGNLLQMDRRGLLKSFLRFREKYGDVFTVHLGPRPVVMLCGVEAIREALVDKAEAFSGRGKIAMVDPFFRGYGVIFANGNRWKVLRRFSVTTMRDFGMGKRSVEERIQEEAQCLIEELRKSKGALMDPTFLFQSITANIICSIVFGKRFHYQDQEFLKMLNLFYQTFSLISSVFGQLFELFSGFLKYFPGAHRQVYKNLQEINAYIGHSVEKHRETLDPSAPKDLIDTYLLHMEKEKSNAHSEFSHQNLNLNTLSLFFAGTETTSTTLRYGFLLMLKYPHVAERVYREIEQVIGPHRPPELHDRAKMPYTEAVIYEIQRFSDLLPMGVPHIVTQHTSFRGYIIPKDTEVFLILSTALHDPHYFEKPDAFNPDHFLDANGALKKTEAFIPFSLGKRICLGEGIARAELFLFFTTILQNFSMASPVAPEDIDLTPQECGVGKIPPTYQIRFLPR

[26] = Half-life in Beagle dog at 5 mg/kg, po measured after 24 hrs by LC/MS/MS analysis; type: ADME, organism-based, Canis lupus familiaris; settings: in vivo
[27] = biological target: T1, Lysophosphatidic acid receptor 1; assay: Antagonist activity at LPA1 receptor in human TWNT-4 cells pre-incubated for 1 hr followed by LPA stimulation and measured after 30 min in presence of 4% human serum albumin by MRTF-A assay; type: cell-based
[28] = Mutagenicity in Salmonella typhimurium TA98 by Ames assay; type: toxicity; settings: salmonella enterica subsp. enterica serovar typhimurium
[29] = Plasma protein binding in Beagle dog assessed as unbound fraction at 2 uM incubated for 24 hrs by LC-MS analysis; type: ADME, cell-free, Canis lupus familiaris
[30] = biological target: Cytochrome P450 2C19 (Homo sapiens, UniProt P33261); assay: Inhibition of CYP2C19 (unknown origin) using midazolam as substrate; type: ADME
Sequence of Cytochrome P450 2C19 (P33261 whole entry): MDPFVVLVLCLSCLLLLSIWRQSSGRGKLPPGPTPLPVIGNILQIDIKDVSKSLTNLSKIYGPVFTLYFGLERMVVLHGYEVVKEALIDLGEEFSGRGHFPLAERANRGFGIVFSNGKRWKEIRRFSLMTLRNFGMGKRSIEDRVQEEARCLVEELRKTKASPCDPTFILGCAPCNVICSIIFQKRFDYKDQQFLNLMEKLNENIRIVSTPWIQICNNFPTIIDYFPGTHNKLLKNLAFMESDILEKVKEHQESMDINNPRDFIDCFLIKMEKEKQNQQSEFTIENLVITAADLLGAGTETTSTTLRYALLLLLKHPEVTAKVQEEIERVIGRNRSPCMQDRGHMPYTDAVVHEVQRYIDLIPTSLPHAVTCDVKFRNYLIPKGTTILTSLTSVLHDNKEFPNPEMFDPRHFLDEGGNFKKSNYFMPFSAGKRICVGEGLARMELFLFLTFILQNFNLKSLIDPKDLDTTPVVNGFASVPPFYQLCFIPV

T1 sequence (Q92633 whole entry): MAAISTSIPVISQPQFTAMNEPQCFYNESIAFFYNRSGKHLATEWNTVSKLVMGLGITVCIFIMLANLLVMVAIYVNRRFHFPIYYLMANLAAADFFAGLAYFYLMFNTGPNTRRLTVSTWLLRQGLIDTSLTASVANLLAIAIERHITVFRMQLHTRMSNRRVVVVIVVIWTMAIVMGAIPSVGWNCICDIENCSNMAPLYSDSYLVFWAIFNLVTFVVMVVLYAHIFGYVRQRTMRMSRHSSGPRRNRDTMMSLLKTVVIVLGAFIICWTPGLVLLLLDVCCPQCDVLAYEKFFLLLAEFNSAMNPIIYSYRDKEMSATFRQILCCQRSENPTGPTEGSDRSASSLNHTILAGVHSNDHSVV
Sequence of Lysophosphatidic acid receptor 5 (Q9H1C0 whole entry): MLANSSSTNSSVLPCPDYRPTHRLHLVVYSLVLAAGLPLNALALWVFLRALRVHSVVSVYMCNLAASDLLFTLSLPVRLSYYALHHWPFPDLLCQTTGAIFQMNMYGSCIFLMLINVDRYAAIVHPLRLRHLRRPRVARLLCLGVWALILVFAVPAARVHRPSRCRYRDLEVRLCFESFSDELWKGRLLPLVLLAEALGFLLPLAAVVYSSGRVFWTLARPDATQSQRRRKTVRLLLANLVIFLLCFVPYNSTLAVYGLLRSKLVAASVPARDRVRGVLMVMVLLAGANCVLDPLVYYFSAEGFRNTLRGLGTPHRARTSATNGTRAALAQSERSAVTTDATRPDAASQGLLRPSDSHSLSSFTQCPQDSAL
Sequence of Cytochrome P450 2D6 (P10635 whole entry): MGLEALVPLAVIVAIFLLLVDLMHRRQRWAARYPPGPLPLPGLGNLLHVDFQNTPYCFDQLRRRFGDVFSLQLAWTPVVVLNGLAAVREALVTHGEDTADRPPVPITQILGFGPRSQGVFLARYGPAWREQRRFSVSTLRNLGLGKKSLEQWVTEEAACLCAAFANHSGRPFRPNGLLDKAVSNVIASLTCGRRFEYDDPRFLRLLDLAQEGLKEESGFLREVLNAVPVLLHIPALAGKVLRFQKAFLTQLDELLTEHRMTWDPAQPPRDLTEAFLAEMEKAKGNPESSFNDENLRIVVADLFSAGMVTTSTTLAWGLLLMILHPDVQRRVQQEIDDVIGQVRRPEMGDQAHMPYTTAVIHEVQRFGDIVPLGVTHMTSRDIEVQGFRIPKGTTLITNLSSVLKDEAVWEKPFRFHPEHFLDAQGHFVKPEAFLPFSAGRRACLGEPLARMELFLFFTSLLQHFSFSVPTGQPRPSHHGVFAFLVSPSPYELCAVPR
Sequence of Bile salt export pump (O95342 whole entry): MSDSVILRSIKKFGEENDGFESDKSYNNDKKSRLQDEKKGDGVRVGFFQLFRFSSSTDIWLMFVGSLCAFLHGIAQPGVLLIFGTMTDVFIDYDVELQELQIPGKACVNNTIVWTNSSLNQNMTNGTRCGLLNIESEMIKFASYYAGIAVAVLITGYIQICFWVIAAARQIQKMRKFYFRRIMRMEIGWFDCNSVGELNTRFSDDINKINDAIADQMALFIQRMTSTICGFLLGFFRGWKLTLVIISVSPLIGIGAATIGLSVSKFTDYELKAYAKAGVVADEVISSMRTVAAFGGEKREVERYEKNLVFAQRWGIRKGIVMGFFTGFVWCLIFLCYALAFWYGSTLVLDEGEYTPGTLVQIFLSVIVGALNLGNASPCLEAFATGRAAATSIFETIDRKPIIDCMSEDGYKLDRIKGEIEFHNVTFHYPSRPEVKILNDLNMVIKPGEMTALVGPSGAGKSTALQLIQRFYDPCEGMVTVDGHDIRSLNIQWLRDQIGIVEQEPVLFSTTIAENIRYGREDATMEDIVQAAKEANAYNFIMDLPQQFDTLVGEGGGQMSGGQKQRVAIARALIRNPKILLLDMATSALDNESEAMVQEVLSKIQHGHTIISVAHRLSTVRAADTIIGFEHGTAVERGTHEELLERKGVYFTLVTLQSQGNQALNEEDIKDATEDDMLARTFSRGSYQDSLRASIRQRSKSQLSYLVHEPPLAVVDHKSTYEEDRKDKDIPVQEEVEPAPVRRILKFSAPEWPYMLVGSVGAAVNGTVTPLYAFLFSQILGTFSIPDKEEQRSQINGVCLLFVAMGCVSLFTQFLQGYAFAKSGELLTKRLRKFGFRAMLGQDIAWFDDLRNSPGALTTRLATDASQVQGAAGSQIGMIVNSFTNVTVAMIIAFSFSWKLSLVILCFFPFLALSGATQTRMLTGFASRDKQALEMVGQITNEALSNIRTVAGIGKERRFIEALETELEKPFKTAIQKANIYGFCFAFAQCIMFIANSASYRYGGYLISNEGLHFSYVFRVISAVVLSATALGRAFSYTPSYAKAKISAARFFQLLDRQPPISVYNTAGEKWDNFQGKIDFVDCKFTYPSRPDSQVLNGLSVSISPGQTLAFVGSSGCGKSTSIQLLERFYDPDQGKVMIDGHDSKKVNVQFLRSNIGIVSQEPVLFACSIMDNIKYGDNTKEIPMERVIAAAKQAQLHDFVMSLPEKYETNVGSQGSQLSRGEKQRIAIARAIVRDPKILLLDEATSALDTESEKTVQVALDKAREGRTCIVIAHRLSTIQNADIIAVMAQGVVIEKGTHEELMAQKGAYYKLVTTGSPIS

Compound: C[C@@H](OC(=O)Nc1c(-c2ccc(NC(=O)c3cnc(C(F)(F)F)nc3)cn2)nnn1C)c1cc(F)cnc1F
- bioavailability [1]: 40%
- Vd [2]: 0.4 L/kg
- Activity [3]: Non-toxic
- half-life [4]: 3.9 h
- EC50 [5]: 38 nM
- EC50 [6]: 12 nM
- CLint scaled at 1 µM [7]: 7.5 mL/min/kg
- bioavailability [8]: 43%
- inhibition (INH) [9]: Not_active
- Papp A→B at 4 h [10]: 11 ×10⁻⁶ cm/s
- Vd [11]: 0.8 L/kg
- EC50 [12]: > 10000 nM
- Papp A→B at 10 µM [13]: 0.4 ×10⁻⁶ cm/s
- EC50 [14]: 71 nM
- fraction unbound at 5 h, 2 µM [15]: 0.133
- IC50 [16]: 22000 nM
- Activity [17]: Non-toxic
- Papp A→B at 20 min [18]: 0.3 ×10⁻⁶ cm/s
- fraction unbound at 24 h, 2 µM [19]: 0.066
- CLint scaled at 1 µM [20]: 1.5 mL/min/kg
- Activity [21]: Non-toxic
- EC50 [22]: 107 nM
- inhibition (INH) [23]: Not_active
- Drug metabolism [24]: metabolite_detected
- inhibition (INH) [25]: Not_active
- half-life [26]: 2.9 h
- EC50 [27]: 34 nM
- Activity [28]: Non-toxic
- fraction unbound at 24 h, 2 µM [29]: 0.095
- inhibition (INH) [30]: Not_active
